Assay results: PMC12703733, “Probing Guanidino Pendant or Bridged Groups in Cyclic Antimicrobial Peptides Derived from Temporin L: A Strategy to Improve Efficacy against Gram-Negative Bacteria” (Journal of Medicinal Chemistry, 2025)
In brackets after ≈: the same amount, converted by molar mass. Bridge positions count the residues as written; N and C are the ends. Square brackets hold non-standard residues; d marks the D form. Peptide text beside a SMILES is read from it. * marks the point of attachment. Butanoyl(4-guanidino) = N=C(N)NCCCC(=O)*

Experiments:
[1] = system: human keratinocytes (HaCaT cells); assay type: cell-based
Protocol: (§1) For the evaluation of peptides’ cytotoxicity, the human immortalized keratinocytes (HaCaT cells), purchased from AddexBio (San Diego, CA, USA), and BEAS-2B were used. HaCaT cells were cultured in Dulbecco’s modified Eagle’s medium supplemented with 4 mM glutamine (DMEM), 10% heat-inactivated fetal bovine serum (FBS), and 0.1 mg/mL of penicillin and streptomycin, at 37 °C and 5% CO2. BEAS-2B cells were cultured in RPMI, supplemented with 2 mM glutamine (DMEM), 10% heat-inactivated fetal bovine serum (FBS), 1 mM sodium pyruvate, and 0.1 mg/mL of penicillin and streptomycin, at 37 °C and 5% CO2. Cytotoxicity was tested in vitro using a colorimetric assay that relies on the intracellular reduction of the yellow 3-(4,5-dimethylthiazol-2-yl)-2,5-diphenyltetrazolium bromide salt (MTT) by mitochondrial dehydrogenases of metabolically active cells in formazan crystals (purple). About 4 × 10^4 HaCaT and BEAS-2B cells, suspended in DMEM supplemented with 2% FBS, were plated in triplicate wells of a 96-well microtiter plate. The plate was incubated overnight at 37 °C and 5% CO2. Then, the cells were treated with different concentrations of the peptide (from 100 to 3.12 μM) in a fresh serum-free medium for 2 h and for a longer time (24 h). Following peptide treatment, the medium was removed, and MTT (0.5 mg/mL) solution in Hank’s buffer (136 mM NaCl, 4.2 mM Na2HPO4, 4.4 mM KH2PO4, 5.4 mM KCl, 4.1 mM NaHCO3, pH 7.2, supplemented with 20 mM D-glucose) was added to each well of the plate, that was then incubated for 4 h at 37 °C and 5% CO2. The purple formazan crystals were dissolved using acidified 2-propanol and a microplate reader (Infinite M200; Tecan, Salzburg, Austria) was used to measure the absorbance of each well at 570 nm. The percentage of cell viability was calculated compared to the control, which consisted of cells without any peptide treatment (corresponding to 100% viability) and all data represent the mean of three independent experiments ± SEM.

[2] = assay type: cell-based, human; conditions: human
Protocol: as §1

[3] = system: E. coli D21; assay: microbe, parasite or virus in culture; assay type: cell-based; conditions: D21
Protocol: (§2) Bacterial strains used in this study were the Gram-positive S. aureus ATCC 25923, S. epidermidis ATCC 12228, B. megaterium BM11, S. [NT] 27591, E. faecalis ATCC 29212 and the Gram-negative E. coli ATCC 25922, P. aeruginosa ATCC 27853, A. baumannii ATCC 19606, E. coli D21 and P. aeruginosa PAO1. […] Bacterial cells in the mid log phase were diluted in Muller Hinton (MH) at a concentration of 2 × 10^6 cell/mL. […] Ciprofloxacin was used as antibiotic control. The plate was then incubated at 37 °C. MICs were obtained from three identical readings of four independent experiments.

[4] = system: E. coli ATCC 25922; assay: microbe, parasite or virus in culture; assay type: cell-based; conditions: ATCC 25922
Protocol: as §2

[5] = system: S. epidermidis ATCC 12228; assay: microbe, parasite or virus in culture; assay type: cell-based; conditions: ATCC 12228
Protocol: as §2

[6] = system: P. aeruginosa ATCC 27853; assay: microbe, parasite or virus in culture; assay type: cell-based; conditions: ATCC 27853
Protocol: as §2

[7] = system: S. aureus ATCC 25923; assay: microbe, parasite or virus in culture; assay type: cell-based; conditions: ATCC 25923
Protocol: as §2

[8] = system: P. aeruginosa PAO1; assay: microbe, parasite or virus in culture; assay type: cell-based; conditions: PAO1
Protocol: as §2

[9] = system: B. megaterium BM11; assay: microbe, parasite or virus in culture; assay type: cell-based; conditions: BM11
Protocol: as §2

[10] = system: S. agalactiae ATCC 27591; assay: microbe, parasite or virus in culture; assay type: cell-based; conditions: ATCC 27591
Protocol: as §2

[11] = system: A. baumannii ATCC 19606; assay: microbe, parasite or virus in culture; assay type: cell-based; conditions: ATCC 19606
Protocol: as §2

[12] = system: E. faecalis ATCC 29212; assay: microbe, parasite or virus in culture; assay type: cell-based; conditions: ATCC 29212
Protocol: as §2

[13] = circular dichroism; conditions: water; pH ns; 25 °C; 150 uM

Row | MIC [3] [µM] | MIC [4] [µM] | MIC [5] [µM] | MIC [6] [µM] | MIC [7] [µM] | MIC [8] [µM] | MIC [9] [µM] | MIC [10] [µM] | Compound | CC50 at 24 h [2] [µM] | viability at 2 h, 6.25 µM ([2]; Cell viability (%)) [%] | viability at 2 h, 12.5 µM ([2]; Cell viability (%)) [%] | viability at 2 h, 25 µM ([2]; Cell viability (%)) [%] | viability at 2 h, 50 µM ([2]; Cell viability (%)) [%] | viability at 2 h, 100 µM ([2]; Cell viability (%)) [%] | viability at 24 h, 3.12 µM ([2]; Cell viability (%)) [%] | viability at 24 h, 6.25 µM ([2]; Cell viability (%)) [%] | viability at 24 h, 12.5 µM ([2]; Cell viability (%)) [%] | viability at 24 h, 25 µM ([2]; Cell viability (%)) [%] | viability at 24 h, 50 µM ([2]; Cell viability (%)) [%] | viability at 24 h, 100 µM ([2]; Cell viability (%)) [%] | other results
1 | 12.5 (≈ 21.8 µg/mL) | 6.25 (≈ 10.9 µg/mL) | 1.56 (≈ 2.72 µg/mL) | 50 (≈ 87.3 µg/mL) | 3.12 (≈ 5.45 µg/mL) | 50 (≈ 87.3 µg/mL) | 1.56 (≈ 2.72 µg/mL) | 3.12 (≈ 5.45 µg/mL) | CC[C@H](C)[C@H](NC(=O)[C@H](CCCNC(=N)N)NC(=O)[C@@H]1CCCCNC(=N)NCCCC[C@H](NC(=O)[C@H](Cc2ccccc2)NC(=O)[C@H](Cc2c[nH]c3ccccc23)NC(=O)[C@@H]2CCCN2C(=O)[C@@H](NC(=O)[C@@H](N)Cc2ccccc2)C(C)C)C(=O)N[C@@H](CCCCN)C(=O)N[C@@H](Cc2ccccc2)C(=O)N[C@H](CC(C)C)C(=O)N1)C(=O)N[C@@H](CC(C)C)C(N)=O [Peptide 11, FVPWF{KKFlK}RIL] | 21.3 | 98 | 86 | 57 | 35 | 10 | 98 ± 4 | 97 ± 3 | 87 ± 3 | 35 ± 3 | 5 ± 3 | 2 ± 1 | cytotoxicity (in words) [1]: Low cytotoxicity (up to 25 μM); MIC [11]: 1.56 µM (≈ 2.72 µg/mL); MIC [12]: 12.5 µM (≈ 21.8 µg/mL); helicity [13]: 76%
2 | 6.25 (≈ 11.4 µg/mL) | 6.25 (≈ 11.4 µg/mL) | 3.12 (≈ 5.71 µg/mL) | 50 (≈ 91.6 µg/mL) | 3.12 (≈ 5.71 µg/mL) | 25 (≈ 45.8 µg/mL) | 0.78 (≈ 1.43 µg/mL) | 1.56 (≈ 2.86 µg/mL) | CC[C@H](C)[C@H](NC(=O)[C@H](CCCNC(=N)N)NC(=O)[C@H]1CCC(=O)NCCCC[C@H](NC(=O)[C@H](Cc2ccccc2)NC(=O)[C@H](Cc2c[nH]c3ccccc23)NC(=O)[C@@H]2CCCN2C(=O)[C@@H](NC(=O)[C@H](Cc2ccccc2)NC(=O)CCCNC(=N)N)C(C)C)C(=O)N[C@@H](CCCCN)C(=O)N[C@@H](Cc2ccccc2)C(=O)N[C@H](CC(C)C)C(=O)N1)C(=O)N[C@@H](CC(C)C)C(N)=O [Peptide 5, guanidino-GABA-FVPWF[KKFle]RIL] ({Butanoyl(4-guanidino)}-FVPWFKKF[dL][dE]RIL-NH2; lactam 6-10) | 24.6 | 126 | 128 | 76 | 18 | 4 | 116 ± 7 | 137 ± 15 | 147 ± 15 | 58 ± 6 | 1 ± 1 | 1 ± 1 | viability at 2 h, 3.12 µM ([2]; Cell viability (%)): 128%; MIC [11]: 3.12 µM (≈ 5.71 µg/mL); MIC [12]: 6.25 µM (≈ 11.4 µg/mL); helicity [13]: 16%
